US20150197497A1, “SELECTIVE INHIBITORS OF HISTONE DEACETYLASE ISOFORM 6 AND METHODS THEREOF” (DANA-FARBER CANCER INSTITUTE, INC., priority 2011, published 2015)

What was measured:
HDAC2 = biological target: T1, HDAC2 (Homo sapiens, UniProt Q92769); experiment: In vitro HDAC enzyme inhibition assay, HDAC2; format: biochemical; settings: for HDAC2/HDAC6 in vitro selectivity: ratio of IC50 for HDAC2 relative to that of HDAC6; for IC50: recombinant full-length HDAC2, substrate MAZ1600 22 μM
T1 construct: Recombinant, full-length HDAC protein (BPS Biosciences) was incubated with fluorophore conjugated substrate; purchased BPS Biosciences
Description: (§1) In vitro Histone Deacetylase enzyme assays were performed using Class I (isoforms: HDAC1, HDAC2, HDAC3 and HDAC8), class IIa (isoforms: HDAC4, HDAC5, HDAC7 and HDAC9) and class IIb (isoform HDAC6).
(§2) HDAC activities were determined in vitro with an optimized homogenous assay performed in a 384-well plate. Recombinant, full-length HDAC protein (BPS Biosciences) was incubated with fluorophore conjugated substrate, MAZ1600 and MAZ1675, at Km=[S]. […] Reactions were performed in assay buffer (50 mM HEPES, 100 mM KCl, 0.001% Tween-20, 0.05% BSA, 200 μM tris(2-carboxyethyl)phosphine (TCEP), pH 7.4) and followed for fluorogenic release of 7-amino-4-methylcoumarin from substrate upon deacetylase and trypsin enzymatic activity. Fluorescence measurements were obtained every five minutes using a multilabel plate reader and plate-stacker (Envision; Perkin-Elmer). Each plate was analyzed by plate repeat, and the first derivative within the linear range was imported into analytical software (Spotfire DecisionSite and GraphPad Prism). Replicate experimental data from incubations with inhibitor were normalized to controls.

HDAC3 = biological target: T2, HDAC3 (Homo sapiens, UniProt O15379); experiment: In vitro HDAC enzyme inhibition assay, HDAC3; format: biochemical; settings: for HDAC3/HDAC6 in vitro selectivity: ratio of IC50 for HDAC3 relative to that of HDAC6; for IC50: recombinant full-length HDAC3, substrate MAZ1600 9 μM
T2 construct: Recombinant, full-length HDAC protein (BPS Biosciences) was incubated with fluorophore conjugated substrate; purchased BPS Biosciences
Description: as §1, §2

HDAC5 = biological target: T3, HDAC5 (Homo sapiens, UniProt Q9UQL6); experiment: In vitro HDAC enzyme inhibition assay, HDAC5; format: biochemical; settings: for HDAC5/HDAC6 in vitro selectivity: ratio of IC50 for HDAC5 relative to that of HDAC6; for IC50: recombinant full-length HDAC5, substrate MAZ1675 40 μM; for selectivity toward HDAC6 compared to HDAC5 (in words): tested in vitro
T3 construct: Recombinant, full-length HDAC protein (BPS Biosciences) was incubated with fluorophore conjugated substrate; purchased BPS Biosciences
Description: as §1, §2

HDAC7 = biological target: T4, HDAC7 (Homo sapiens, UniProt Q8WUI4); experiment: In vitro HDAC enzyme inhibition assay, HDAC7; format: biochemical; settings: for HDAC7/HDAC6 in vitro selectivity: ratio of IC50 for HDAC7 relative to that of HDAC6; for IC50: recombinant full-length HDAC7, substrate MAZ1675 22 μM
T4 construct: Recombinant, full-length HDAC protein (BPS Biosciences) was incubated with fluorophore conjugated substrate; purchased BPS Biosciences
T4 sequence (Q8WUI4 1-952): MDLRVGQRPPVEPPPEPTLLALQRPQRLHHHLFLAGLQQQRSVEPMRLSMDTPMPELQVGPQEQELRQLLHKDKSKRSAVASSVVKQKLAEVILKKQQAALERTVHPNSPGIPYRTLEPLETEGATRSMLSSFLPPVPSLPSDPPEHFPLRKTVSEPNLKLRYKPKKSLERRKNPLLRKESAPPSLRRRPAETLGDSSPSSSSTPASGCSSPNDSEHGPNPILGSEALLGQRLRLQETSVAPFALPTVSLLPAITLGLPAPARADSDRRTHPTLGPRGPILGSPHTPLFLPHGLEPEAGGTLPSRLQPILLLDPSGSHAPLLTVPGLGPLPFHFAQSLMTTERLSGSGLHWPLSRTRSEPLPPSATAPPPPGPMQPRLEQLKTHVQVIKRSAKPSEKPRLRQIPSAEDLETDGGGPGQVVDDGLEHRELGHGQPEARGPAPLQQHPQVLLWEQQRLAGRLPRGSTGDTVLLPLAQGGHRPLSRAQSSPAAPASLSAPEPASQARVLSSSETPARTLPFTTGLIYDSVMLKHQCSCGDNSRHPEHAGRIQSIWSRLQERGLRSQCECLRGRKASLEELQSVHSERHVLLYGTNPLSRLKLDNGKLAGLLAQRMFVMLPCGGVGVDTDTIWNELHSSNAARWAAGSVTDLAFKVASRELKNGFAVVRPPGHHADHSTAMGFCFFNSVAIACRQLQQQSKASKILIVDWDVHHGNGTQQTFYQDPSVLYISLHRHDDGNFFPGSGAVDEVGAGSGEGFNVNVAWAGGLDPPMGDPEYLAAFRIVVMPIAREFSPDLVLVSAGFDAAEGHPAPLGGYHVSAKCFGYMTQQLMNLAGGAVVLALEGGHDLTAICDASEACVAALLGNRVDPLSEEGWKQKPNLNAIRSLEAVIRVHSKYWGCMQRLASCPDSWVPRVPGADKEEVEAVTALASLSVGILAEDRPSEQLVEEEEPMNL
Description: as §1, §2

HDAC8 = biological target: T5, HDAC8 (Homo sapiens, UniProt Q9BY41); experiment: In vitro HDAC enzyme inhibition assay, HDAC8; format: biochemical; settings: for HDAC8/HDAC6 in vitro selectivity: ratio of IC50 for HDAC8 relative to that of HDAC6; for IC50: recombinant full-length HDAC8, substrate MAZ1675 282 μM
T5 construct: Recombinant, full-length HDAC protein (BPS Biosciences) was incubated with fluorophore conjugated substrate; purchased BPS Biosciences
T5 sequence (Q9BY41 1-377): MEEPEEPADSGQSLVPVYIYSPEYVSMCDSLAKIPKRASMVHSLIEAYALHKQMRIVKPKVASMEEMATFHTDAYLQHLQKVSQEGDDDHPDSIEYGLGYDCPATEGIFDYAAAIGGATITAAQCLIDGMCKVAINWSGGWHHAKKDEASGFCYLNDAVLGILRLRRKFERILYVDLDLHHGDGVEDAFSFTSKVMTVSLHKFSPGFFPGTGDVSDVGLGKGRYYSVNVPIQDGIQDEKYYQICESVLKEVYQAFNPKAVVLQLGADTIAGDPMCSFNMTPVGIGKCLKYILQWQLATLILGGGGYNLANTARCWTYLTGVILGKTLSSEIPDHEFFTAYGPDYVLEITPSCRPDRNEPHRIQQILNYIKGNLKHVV
Description: as §1, §2

HDAC9 = biological target: T6, HDAC9 (Homo sapiens, UniProt Q9UKV0); experiment: In vitro HDAC enzyme inhibition assay, HDAC9; format: biochemical; settings: for HDAC9/HDAC6 in vitro selectivity: ratio of IC50 for HDAC9 relative to that of HDAC6; for IC50: recombinant full-length HDAC9, substrate MAZ1675 26 μM; for selectivity toward HDAC6 compared to HDAC9 (in words): tested in vitro
T6 construct: Recombinant, full-length HDAC protein (BPS Biosciences) was incubated with fluorophore conjugated substrate; purchased BPS Biosciences
Description: as §1, §2

acetylated tubulin = experiment: High-content image analysis of induction of acetylated tubulin in A549 cells; settings: for EC50: Homo sapiens, A549, 8 h, read-out: EC50 for half-maximal induction of acetylated tubulin (AcTubulin); for AcHistone/AcTubulin in cell selectivity toward HDAC6: ratio of EC50 acetylated histone to EC50 acetylated tubulin, A549 cells
Description: Cells were treated with each test HDACi compound with an automated pin transfer instrument (Janus, Perkin Elmer) and incubated for 8 hours. […] Fixation solution was aspirated and 90 μL of washing solution (0.1% Triton X-100 in PBS) was added prior to 10 minute incubation at 4° C. Washing solution was aspirated and cells were incubated at 4° C. for about 1 hour in blocking solution (0.1% Triton X-100+2% BSA in PBS). Washing solution was aspirated, and cells were incubated for about 1 hour at 4° C. in primary antibody for acetylated-tubulin (Sigma T7451) and acetylated-histone (Cell Signaling #9441L) at a 1:1000 dilution in blocking solution. Primary antibody solution was aspirated, and cells were washed three times in 90 μL of washing solution. […] Secondary antibody and nuclear staining solution was aspirated and cells were washed three times in 90 μL of washing solution. After the third wash, 50 μL of PBS was added to each well. Image acquisition was done on a high content imaging microscope (ImageXpress Micro, Molecular Devices), and image analysis (MetaXpress, Molecular Devices) was performed to obtain average acetylated-tubulin and acetylated-histone signal per cell based on treatment. Replicate experimental data from incubations with inhibitor were normalized to DMSO controls.

T1 sequence (Q92769 whole entry): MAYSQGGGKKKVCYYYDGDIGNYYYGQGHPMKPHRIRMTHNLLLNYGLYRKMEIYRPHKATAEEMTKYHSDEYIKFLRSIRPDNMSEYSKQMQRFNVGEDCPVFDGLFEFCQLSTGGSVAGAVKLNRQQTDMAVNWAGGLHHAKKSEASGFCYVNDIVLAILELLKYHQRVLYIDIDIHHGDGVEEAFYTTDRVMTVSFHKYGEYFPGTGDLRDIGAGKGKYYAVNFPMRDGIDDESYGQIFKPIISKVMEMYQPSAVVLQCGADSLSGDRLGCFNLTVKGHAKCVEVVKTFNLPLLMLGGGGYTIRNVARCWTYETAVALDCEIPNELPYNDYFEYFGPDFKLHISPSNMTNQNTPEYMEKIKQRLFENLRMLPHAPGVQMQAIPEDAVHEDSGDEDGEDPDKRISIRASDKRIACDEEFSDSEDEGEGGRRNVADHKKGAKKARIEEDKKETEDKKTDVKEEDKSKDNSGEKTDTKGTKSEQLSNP
T6 sequence (Q9UKV0 whole entry): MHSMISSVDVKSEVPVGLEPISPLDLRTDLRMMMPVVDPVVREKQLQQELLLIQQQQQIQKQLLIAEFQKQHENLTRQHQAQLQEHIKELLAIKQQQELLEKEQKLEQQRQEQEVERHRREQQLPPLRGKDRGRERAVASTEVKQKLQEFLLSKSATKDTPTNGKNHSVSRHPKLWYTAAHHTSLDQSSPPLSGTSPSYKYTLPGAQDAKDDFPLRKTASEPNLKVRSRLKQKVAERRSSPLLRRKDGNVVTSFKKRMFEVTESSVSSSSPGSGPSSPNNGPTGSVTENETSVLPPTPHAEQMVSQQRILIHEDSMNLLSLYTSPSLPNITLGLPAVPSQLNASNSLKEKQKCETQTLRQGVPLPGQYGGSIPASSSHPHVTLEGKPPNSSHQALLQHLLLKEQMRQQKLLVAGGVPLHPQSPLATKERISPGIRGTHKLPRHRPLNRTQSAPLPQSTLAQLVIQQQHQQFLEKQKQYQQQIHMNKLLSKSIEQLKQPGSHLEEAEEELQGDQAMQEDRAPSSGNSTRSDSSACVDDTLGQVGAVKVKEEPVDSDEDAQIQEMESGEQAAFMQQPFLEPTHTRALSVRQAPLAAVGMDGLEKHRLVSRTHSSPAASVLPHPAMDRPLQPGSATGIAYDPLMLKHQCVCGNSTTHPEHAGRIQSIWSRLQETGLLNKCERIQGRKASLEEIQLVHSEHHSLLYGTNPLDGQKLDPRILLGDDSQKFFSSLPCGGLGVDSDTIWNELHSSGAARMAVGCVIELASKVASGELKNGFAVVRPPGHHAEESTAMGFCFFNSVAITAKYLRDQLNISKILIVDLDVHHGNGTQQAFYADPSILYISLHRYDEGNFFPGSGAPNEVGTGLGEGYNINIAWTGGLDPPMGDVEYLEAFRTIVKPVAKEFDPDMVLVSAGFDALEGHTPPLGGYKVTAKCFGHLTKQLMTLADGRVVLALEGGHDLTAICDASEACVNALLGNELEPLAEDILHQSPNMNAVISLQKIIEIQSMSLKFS
T2 sequence (O15379 whole entry): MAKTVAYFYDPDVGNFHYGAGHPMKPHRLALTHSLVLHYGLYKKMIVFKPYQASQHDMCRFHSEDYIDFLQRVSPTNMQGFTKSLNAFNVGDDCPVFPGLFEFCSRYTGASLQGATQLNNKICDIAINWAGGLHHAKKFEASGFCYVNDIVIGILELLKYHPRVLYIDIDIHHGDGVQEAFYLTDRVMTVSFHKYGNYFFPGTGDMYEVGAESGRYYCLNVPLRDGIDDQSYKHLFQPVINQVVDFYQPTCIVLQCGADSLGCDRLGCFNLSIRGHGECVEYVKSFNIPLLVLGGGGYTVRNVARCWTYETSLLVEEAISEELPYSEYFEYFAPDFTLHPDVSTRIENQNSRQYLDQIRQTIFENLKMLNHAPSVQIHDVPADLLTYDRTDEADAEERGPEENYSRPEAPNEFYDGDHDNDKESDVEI
T2 sequence (Q9Y618 395-489 partner limits assumed): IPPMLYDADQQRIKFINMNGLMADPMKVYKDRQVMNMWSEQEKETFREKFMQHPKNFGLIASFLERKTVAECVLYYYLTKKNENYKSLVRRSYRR
T3 sequence (Q9UQL6 whole entry): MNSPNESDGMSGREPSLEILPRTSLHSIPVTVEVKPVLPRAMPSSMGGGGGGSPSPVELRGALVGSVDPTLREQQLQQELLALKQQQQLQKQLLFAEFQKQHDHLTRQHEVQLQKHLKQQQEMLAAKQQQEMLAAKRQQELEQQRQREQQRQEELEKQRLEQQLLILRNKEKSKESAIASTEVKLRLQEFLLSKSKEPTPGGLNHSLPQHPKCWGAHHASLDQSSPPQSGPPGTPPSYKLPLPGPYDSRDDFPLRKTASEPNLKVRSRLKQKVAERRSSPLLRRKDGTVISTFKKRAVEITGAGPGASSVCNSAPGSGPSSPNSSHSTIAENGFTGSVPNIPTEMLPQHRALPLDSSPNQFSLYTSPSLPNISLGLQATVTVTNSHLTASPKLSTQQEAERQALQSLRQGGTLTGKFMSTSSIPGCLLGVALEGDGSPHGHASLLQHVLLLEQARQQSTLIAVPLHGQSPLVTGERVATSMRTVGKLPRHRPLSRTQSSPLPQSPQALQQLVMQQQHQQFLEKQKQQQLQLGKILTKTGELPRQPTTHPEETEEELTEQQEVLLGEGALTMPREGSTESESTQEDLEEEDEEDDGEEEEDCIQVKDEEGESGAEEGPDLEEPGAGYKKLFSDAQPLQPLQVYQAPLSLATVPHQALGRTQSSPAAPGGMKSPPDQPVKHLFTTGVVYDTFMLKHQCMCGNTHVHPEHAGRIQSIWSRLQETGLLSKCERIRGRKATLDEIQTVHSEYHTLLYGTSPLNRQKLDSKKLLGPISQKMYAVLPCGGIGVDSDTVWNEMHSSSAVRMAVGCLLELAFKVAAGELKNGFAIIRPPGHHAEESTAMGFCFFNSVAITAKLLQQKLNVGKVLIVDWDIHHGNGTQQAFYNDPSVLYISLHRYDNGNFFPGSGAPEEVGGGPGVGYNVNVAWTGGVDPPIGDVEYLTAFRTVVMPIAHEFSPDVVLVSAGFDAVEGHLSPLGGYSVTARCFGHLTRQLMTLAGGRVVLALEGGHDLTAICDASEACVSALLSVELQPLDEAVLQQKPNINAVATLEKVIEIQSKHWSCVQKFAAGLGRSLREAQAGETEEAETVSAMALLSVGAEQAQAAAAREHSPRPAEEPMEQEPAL

Row | Structure (SMILES) | HDAC2/HDAC6 in vitro selectivity (HDAC2) | IC50 (HDAC2) [µM] | HDAC3/HDAC6 in vitro selectivity (HDAC3) | IC50 (HDAC3) [µM] | HDAC5/HDAC6 in vitro selectivity (HDAC5) | IC50 (HDAC5) [µM] | selectivity toward HDAC6 compared to HDAC5 (in words) (HDAC5) | HDAC7/HDAC6 in vitro selectivity (HDAC7) | IC50 (HDAC7) [µM] | selectivity toward HDAC6 compared to HDAC7 (in words) (HDAC7; tested in vitro) | HDAC8/HDAC6 in vitro selectivity (HDAC8) | IC50 (HDAC8) [µM] | selectivity toward HDAC6 compared to HDAC8 (in words) (HDAC8; tested in vitro) | HDAC9/HDAC6 in vitro selectivity (HDAC9) | IC50 (HDAC9) [µM] | selectivity toward HDAC6 compared to HDAC9 (in words) (HDAC9) | EC50 (acetylated tubulin) [µM] | AcHistone/AcTubulin in cell selectivity toward HDAC6 (acetylated tubulin)
1 | Cc1ccc2c(c1)[nH]c(=O)n2Cc1ccc(C(=O)NO)cc1 [B2, N-hydroxy-4-((5-methyl-2-oxo-2,3-dihydro-1H-benzo[d]imidazol-1-yl)methyl)benzamide] | 4997 | 0.0143 | 6310 | 0.0181 | 229909 | 0.658 | exceptionally high selectivity (Inhibitors with in vitro selectivity values for HDAC6 of at least 30,000 are considered to have exceptionally high selectivity toward HDAC6) | 55678 | 0.159 | exceptionally high selectivity (Inhibitors with in vitro selectivity values for HDAC6 of at least 30,000 are considered to have exceptionally high selectivity toward HDAC6) | 120780 | 0.346 | exceptionally high selectivity (Inhibitors with in vitro selectivity values for HDAC6 of at least 30,000 are considered to have exceptionally high selectivity toward HDAC6) | 319552 | 0.915 | exceptionally high selectivity (Inhibitors with in vitro selectivity values for HDAC6 of at least 30,000 are considered to have exceptionally high selectivity toward HDAC6) | 0.0953 | 2.402
2 | O=C(NO)c1ccc(Cn2c(=O)[nH]c3cc(F)ccc32)cc1 [B3, 4-((5-fluoro-2-oxo-2,3-dihydro-1H-benzo[d]imidazol-1-yl)methyl)N-hydroxybenzamide] | 3002 | 0.0647 | 6307 | 0.136 | 51438 | 1.11 | exceptionally high selectivity (Inhibitors with in vitro selectivity values for HDAC6 of at least 30,000 are considered to have exceptionally high selectivity toward HDAC6) | 17021 | 0.367 | – | 12899 | 0.278 | – | 66950 | 1.44 | exceptionally high selectivity (Inhibitors with in vitro selectivity values for HDAC6 of at least 30,000 are considered to have exceptionally high selectivity toward HDAC6) | 0.0702 | 21.1
3 | O=C(NO)c1ccc(Cn2c(=O)[nH]c3cc(Cl)ccc32)cc1 [B4, 4-((5-chloro-2-oxo-2,3-dihydro-1H-benzo[d]imidazol-1-yl)methyl)-N-hydroxybenzamide] | 210 | 0.0053 | 353 | 0.00892 | 22793 | 0.576 | – | 3153 | 0.0796 | – | 6673 | 0.169 | – | 16475 | 0.416 | – | 0.0805 | 5.217
